Test results taken from US7247627B2, “Salts and polymorphs of a pyrrole-substituted indolinone compound” (Pharmacia & Upjohn Company, priority 2003, dated 2007).

Assay: Chemical stability in temperature and humidity-controlled chamber (Example 2)
Format: physicochemical
Design: key to Appearance: U: unchanged
Protocol: Chemical stability was assessed for two different samples of 5-[(Z)-(5-fluoro-2-oxo-1,2-dihydro-3H-indol-3-ylidene)methyl]-N-[(2S)-2-hydroxy-3-morpholin-4-ylpropyl]-2,4-dimethyl-1H-pyrrole-3-carboxamide maleate salt, polymorph Form 1. Samples were maintained in a temperature and humidity-controlled chamber at 25° C. and 60% relative humidity (Tables 7 and 8) or at 40° C. and 75% relative humidity (Tables 9 and 10). At various time intervals, material was removed and tested for maleate counterion assay, impurities, water content and enantiomeric purity.
The maleate counterion assay was determined by ion exchange chromatography (IEC).
A suitable amount of the maleate salt is dissolved in water (Milli Q grade) and analyzed by IEC, and compared to calibration samples. Under these conditions, the peak due to maleic acid has a retention time of about 11 minutes. The amount of maleic acid in the sample is calculated as: % Assay=(Cs/W)×100 where Cs is the concentration of maleic acid found in the sample, and W is the theoretical sample concentration in the aqueous solution.
The amounts of impurities and degradation products were determined by HPLC, using a Perkin Elmer LC 200 system with a diode array detector. The analytical column was a Waters Xterra RP18, 5 μm, 250×4.6 mm, and the guard column was a Waters Xterra RP18, 5 μm, 20×3.9 mm. Mobile phase A was a mixture of 90% 0.05 M ammonium acetate buffer at pH 5.5 and 10% acetonitrile. Mobile phase B was a mixture of 10% 0.05 M ammonium acetate buffer at pH 5.5 and 90% acetonitrile.
Flow rate was 1 mL/min, injection volume 30 μL, room temperature, 435 nm detection. Under these conditions, the peak due to the maleate salt has a retention time of about 24 minutes. Impurities are characterized by their relative retention time (RRT). The impurity at RRT=0.26 is the E isomer. The other impurities were not characterized.
Enantiomeric purity was determined by HPLC, using a Chiralpak AD analytical column, 10 μm, 250×4.6 mm (Daicel Chemical Industries, Ltd.) using an oven temperature of 30° C., a mobile phase of 2-propanol/heptane/diethylamine (50/50/0.1), an isocratic elution mode, a flow rate of 0.5 mL/min, injection volume of 50 μL, detector wavelength of 265 nm, dilution solvent 2-propanol/heptane (50/50) and a sample concentration of 0.3 mg/mL. Under these conditions, the S isomer has a retention time of about 15.5 minutes, and the R isomer has a retention time of about 22 minutes.
Water content was determined according to USP 25, <921>, Method Ic.

[1] = 25° C. and 60% Relative Humidity, 1 mo.
[2] = 25° C. and 60% Relative Humidity, 3 mo.
[3] = 25° C. and 60% Relative Humidity, 6 mo.
[4] = 25° C. and 60% Relative Humidity, Initial
[5] = 40° C. and 75% Relative Humidity, 1 mo.
[6] = 40° C. and 75% Relative Humidity, 3 mo.
[7] = 40° C. and 75% Relative Humidity, 6 mo.
[8] = 40° C. and 75% Relative Humidity, Initial

Question: Which Appearance [1] does the source give for `Cc1[nH]c(/C=C2\C(=O)Nc3ccc(F)cc32)c(C)c1C(=O)NC[C@H](O)CN1CCOCC1` [Sample B, 5-[(Z)-(5-fluoro-2-oxo-1,2-dihydro-3H-indol-3-ylidene)methyl]-N-[(2S)-2-hydroxy-3-morpholin-4-ylpropyl]-2,4-dimethyl-1H-pyrrole-3-carboxamide] here?
Answer: The Appearance was “U^a”.

Question: And the “Assay (% free base equivalent)” value [1]?
Answer: The value was 98.2 % free base equivalent.

Question: What about the “Impurities (%) RRT 0.26” value [1] of the same compound?
Answer: The value was 0.06%.

Question: And the “Impurities (%) RRT 0.51” value [1]?
Answer: Its value is 0.62%.

Question: And the “Impurities (%) RRT 0.71” value [1]?
Answer: Its value is 0.09%.

Question: And the “Impurities (%) RRT 1.53” value [1]?
Answer: The value was 0.09%.

Question: And the “Impurities (%) RRT 1.74” value [1]?
Answer: The value was 0.06%.

Question: What about the “Impurities (%) RRT 1.84” value [1] of the same compound?
Answer: The value was 0.08%.

Question: What about the “Total Impurities (%)” value [1] of the same compound?
Answer: Its value is 1.00%.

Question: What about the “Water Content (%)” value [1] of the same compound?
Answer: The value was 0.50%.

Question: What about the Appearance [2] of the same compound?
Answer: The Appearance was “U^a”.

Question: And the “Assay (% free base equivalent)” value [2]?
Answer: The value was 98.2 % free base equivalent.

Question: What about the “Impurities (%) RRT 0.26” value [2] of the same compound?
Answer: Its value is 0.18%.

Question: And the “Impurities (%) RRT 0.51” value [2]?
Answer: Its value is 0.61%.

Question: And the “Impurities (%) RRT 0.71” value [2]?
Answer: Its value is 0.09%.

Question: What about the “Impurities (%) RRT 1.53” value [2] of the same compound?
Answer: Its value is 0.08%.

Question: What about the “Impurities (%) RRT 1.74” value [2] of the same compound?
Answer: Its value is 0.05%.

Question: And the “Impurities (%) RRT 1.84” value [2]?
Answer: Its value is 0.09%.

Question: What about the “Total Impurities (%)” value [2] of the same compound?
Answer: Its value is 1.10%.

Question: And the “Water Content (%)” value [2]?
Answer: The value was 0.54%.

Question: And the Appearance [3]?
Answer: The Appearance was “U^a”.

Question: What about the “Assay (% free base equivalent)” value [3] of the same compound?
Answer: Its value is 97.7 % free base equivalent.

Question: What about the “Impurities (%) RRT 0.26” value [3] of the same compound?
Answer: The value was 0.05%.

Question: And the “Impurities (%) RRT 0.51” value [3]?
Answer: The value was 0.56%.

Question: What about the “Impurities (%) RRT 0.71” value [3] of the same compound?
Answer: Its value is 0.05%.

Question: And the “Impurities (%) RRT 1.53” value [3]?
Answer: The value was 0.08%.

Question: And the “Impurities (%) RRT 1.74” value [3]?
Answer: The value was 0.06%.

Question: What about the “Impurities (%) RRT 1.84” value [3] of the same compound?
Answer: The value was 0.09%.

Question: What about the “Total Impurities (%)” value [3] of the same compound?
Answer: The value was 0.90%.

Question: What about the “Water Content (%)” value [3] of the same compound?
Answer: The value was 0.47%.

Question: What about the “Assay (% free base equivalent)” value [4] of the same compound?
Answer: Its value is 97.8 % free base equivalent.

Question: And the “Enantiomeric Purity (%)” value [4]?
Answer: Its value is over 99.90%.

Question: And the “Impurities (%) RRT 0.26” value [4]?
Answer: The value was 0.21%.

Question: What about the “Impurities (%) RRT 0.51” value [4] of the same compound?
Answer: The value was 0.68%.

Question: What about the “Impurities (%) RRT 0.71” value [4] of the same compound?
Answer: Its value is 0.07%.

Question: And the “Impurities (%) RRT 1.53” value [4]?
Answer: Its value is 0.11%.

Question: What about the “Impurities (%) RRT 1.74” value [4] of the same compound?
Answer: The value was 0.07%.

Question: And the “Impurities (%) RRT 1.84” value [4]?
Answer: The value was 0.10%.

Question: And the “Total Impurities (%)” value [4]?
Answer: The value was 1.24%.

Question: What about the “Water Content (%)” value [4] of the same compound?
Answer: The value was 0.45%.

Question: What about the Appearance [5] of the same compound?
Answer: Its Appearance is “U^a”.

Question: What about the “Assay (% free base equivalent)” value [5] of the same compound?
Answer: The value was 98.2 % free base equivalent.

Question: And the “Impurities (%) RRT 0.26” value [5]?
Answer: The value was 0.13%.

Question: And the “Impurities (%) RRT 0.51” value [5]?
Answer: The value was 0.61%.

Question: And the “Impurities (%) RRT 0.71” value [5]?
Answer: The value was 0.08%.

Question: And the “Impurities (%) RRT 1.53” value [5]?
Answer: Its value is 0.10%.

Question: What about the “Impurities (%) RRT 1.74” value [5] of the same compound?
Answer: Its value is 0.06%.

Question: What about the “Impurities (%) RRT 1.84” value [5] of the same compound?
Answer: Its value is 0.08%.

Question: And the “Total Impurities (%)” value [5]?
Answer: Its value is 1.06%.

Question: What about the “Water Content (%)” value [5] of the same compound?
Answer: The value was 0.49%.

Question: What about the Appearance [6] of the same compound?
Answer: The Appearance was “U^a”.

Question: What about the “Assay (% free base equivalent)” value [6] of the same compound?
Answer: Its value is 97.2 % free base equivalent.

Question: And the “Impurities (%) RRT 0.26” value [6]?
Answer: Its value is 0.18%.

Question: What about the “Impurities (%) RRT 0.51” value [6] of the same compound?
Answer: Its value is 0.58%.

Question: And the “Impurities (%) RRT 0.71” value [6]?
Answer: The value was 0.08%.

Question: And the “Impurities (%) RRT 1.53” value [6]?
Answer: Its value is 0.09%.

Question: What about the “Impurities (%) RRT 1.74” value [6] of the same compound?
Answer: The value was 0.05%.

Question: What about the “Impurities (%) RRT 1.84” value [6] of the same compound?
Answer: The value was 0.09%.

Question: And the “Total Impurities (%)” value [6]?
Answer: Its value is 1.06%.

Question: And the “Water Content (%)” value [6]?
Answer: The value was 0.49%.

Question: What about the Appearance [7] of the same compound?
Answer: The Appearance was “U^a”.

Question: And the “Assay (% free base equivalent)” value [7]?
Answer: The value was 97.5 % free base equivalent.

Question: What about the “Enantiomeric Purity (%)” value [7] of the same compound?
Answer: Its value is over 99.9%.

Question: What about the “Impurities (%) RRT 0.26” value [7] of the same compound?
Answer: The value was 0.05%.

Question: What about the “Impurities (%) RRT 0.51” value [7] of the same compound?
Answer: Its value is 0.54%.

Question: What about the “Impurities (%) RRT 1.53” value [7] of the same compound?
Answer: Its value is 0.10%.

Question: What about the “Impurities (%) RRT 1.74” value [7] of the same compound?
Answer: The value was 0.05%.

Question: And the “Impurities (%) RRT 1.84” value [7]?
Answer: Its value is 0.09%.

Question: And the “Total Impurities (%)” value [7]?
Answer: The value was 0.83%.

Question: What about the “Water Content (%)” value [7] of the same compound?
Answer: The value was 0.47%.

Question: What about the “Assay (% free base equivalent)” value [8] of the same compound?
Answer: Its value is 97.8 % free base equivalent.

Question: What about the “Enantiomeric Purity (%)” value [8] of the same compound?
Answer: Its value is over 99.95%.

Question: What about the “Impurities (%) RRT 0.26” value [8] of the same compound?
Answer: The value was 0.21%.

Question: What about the “Impurities (%) RRT 0.51” value [8] of the same compound?
Answer: The value was 0.68%.

Question: What about the “Impurities (%) RRT 0.71” value [8] of the same compound?
Answer: The value was 0.07%.

Question: And the “Impurities (%) RRT 1.53” value [8]?
Answer: Its value is 0.11%.

Question: And the “Impurities (%) RRT 1.74” value [8]?
Answer: Its value is 0.07%.

Question: And the “Impurities (%) RRT 1.84” value [8]?
Answer: Its value is 0.10%.

Question: What about the “Total Impurities (%)” value [8] of the same compound?
Answer: Its value is 1.24%.

Question: And the “Water Content (%)” value [8]?
Answer: Its value is 0.45%.
